Source: patent US11318157B2, “6-6 bicyclic aromatic ring substituted nucleoside analogues for use as PRMT5 inhibitors” (Janssen Pharmaceutica NV, priority 2015, dated 2022)
Where two headings read alike, the source gives them in different places.

Experiments:
PRMT5-MEP50 enzyme [1] = molecular target: T1, PRMT5-MEP50 enzyme (Homo sapiens, UniProt O14744); test: In vitro assay 1b: high throughput mass spectrometer assay of SAH formation, 1.25 nM enzyme, 120 min; assay type: biochemical; conditions: averaged values; PRMT5-MEP50, 1.25 nM enzyme, 120 min; read-out: pIC50 Assay 1b (converted)
T1 construct: One virus expresses full length human PRMT5 with Flag-tag at N-terminus; Flag (N); purchased Charles River (Argenta); host or cells: insect cells (Sf9), baculovirus co-infection
T1 sequence (O14744 whole entry): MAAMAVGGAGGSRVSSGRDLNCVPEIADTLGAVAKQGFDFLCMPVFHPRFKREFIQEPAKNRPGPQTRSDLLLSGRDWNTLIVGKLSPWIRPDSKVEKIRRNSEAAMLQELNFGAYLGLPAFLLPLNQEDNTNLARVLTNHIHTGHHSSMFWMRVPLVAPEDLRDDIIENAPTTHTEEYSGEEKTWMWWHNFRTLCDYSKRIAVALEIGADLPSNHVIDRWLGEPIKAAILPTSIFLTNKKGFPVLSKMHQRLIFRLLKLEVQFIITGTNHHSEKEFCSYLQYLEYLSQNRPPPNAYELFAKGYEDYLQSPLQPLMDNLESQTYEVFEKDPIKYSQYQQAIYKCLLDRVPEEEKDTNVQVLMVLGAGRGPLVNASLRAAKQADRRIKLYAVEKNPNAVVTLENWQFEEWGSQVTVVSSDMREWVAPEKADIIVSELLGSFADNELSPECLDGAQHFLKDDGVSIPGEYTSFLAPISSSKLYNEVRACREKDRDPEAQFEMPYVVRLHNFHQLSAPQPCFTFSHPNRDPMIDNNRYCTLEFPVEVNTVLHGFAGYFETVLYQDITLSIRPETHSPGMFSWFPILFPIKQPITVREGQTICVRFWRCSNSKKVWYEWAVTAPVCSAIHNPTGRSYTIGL
T1 sequence (Q9BQA1 whole entry partner): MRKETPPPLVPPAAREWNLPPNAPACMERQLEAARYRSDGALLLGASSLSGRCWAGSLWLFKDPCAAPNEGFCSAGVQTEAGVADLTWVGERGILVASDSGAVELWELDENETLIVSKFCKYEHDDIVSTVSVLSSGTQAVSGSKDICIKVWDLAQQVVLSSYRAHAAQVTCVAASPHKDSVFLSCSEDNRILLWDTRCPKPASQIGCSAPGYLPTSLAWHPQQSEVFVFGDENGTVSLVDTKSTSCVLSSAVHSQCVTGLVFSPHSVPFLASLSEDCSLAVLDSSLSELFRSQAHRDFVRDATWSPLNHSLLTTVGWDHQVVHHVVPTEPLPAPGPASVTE
From the text: (§1) Experimental Procedures In Vitro Assay (Assay 1a and 1b)
(§2) PRMT5-MEP50 enzyme was purchased from Charles River (Argenta). The enzyme complex was produced in insect cells (Sf9) infected simultaneously with two baculoviruses. One virus expresses full length human PRMT5 with Flag-tag at N-terminus, the second virus expresses full length MEP50 with His6-TEV cleavage at N-terminus. The protein was affinity purified using anti-Flag (M2) beads eluted with 3×FLAG peptide, followed by His-Select eluted with 0.5M imidazole. Eluted protein was then dialysed against tris-buffered saline (TBS) (pH 8.0) containing 20% glycerol and 3 mM dithiothreitol (DTT).
(§3) Full-length untagged human recombinant histone H2A (residues 1-130, Genbank Accession #NM_021052 MW=14.1 kDa) expressed in E. coli was purchased from Reaction Biology Corporation, Cat #HMT-11-146. Reagents used for making reaction buffer or stopping reaction were purchased including Tris base (Sigma Cat #T-1503), NaCl (Sigma Cat #RGF-3270), MgCl2 (Sigma Cat #M0250), DTTI (Invitrogen Cat #15508-013) and Formic Acid (Riedel deHaen, Cat #33015)
(§4) High Throughput Mass Spectrometer Assay
(§5) PRMT5 catalyzes the sequential methylations of the terminal nitrogen atoms on the guanidine groups of arginine residues within proteins using co-substrate S-adenosyl-L-methionine (AdoMet, SAM), forming mono-methyl (MMA), symmetric-dimethyl arginine (sDMA) and S-adenosyl-L-homocysteine (AdoHcy, SAH). The enzyme activity was determined by following the product SAH formation using high throughput mass spectrometry (Agilent Rapidfire 300 System coupled to a Sciex 4000 series QTrap® triple-quad MS/MS). The reaction buffer was 20 mM Tris-HCl, pH 8.5, 50 mM NaCl, 5 mM MgCl2 and 1 mM DTT. The reaction activity was stopped using 1% formic acid (final concentration).
(§6) The IC50 Studies were performed using eleven point dosing series made for each compound by serially diluted 1:2 in dimethyl sulfoxide (DMSO), with point 12 being a DMSO control. Compounds were first spotted to plates, and followed by addition of 2 μM SAM and 0.6 μM H2A (histone H2A) solution mixture. The same volume of enzyme solution was added to initiate the enzymatic reactions. The final concentrations of the reaction are at 1 μM SAM, 0.3 μM H2A and 10 nM enzyme (assay 1a) or 1.25 nM enzyme (assay 1b). The reaction was incubated at 30° C. for 60 minutes (min) when 10 nM enzyme was used and for 120 min when 1.25 nM enzyme was used. Subsequently, the reaction was quenched by addition of formic acid to a final concentration of 1%. The inhibitions of SAH formation in the presence of compounds were calculated as a percentage of the control relative to the uninhibited reaction as a function of inhibitor concentration. The data were fit as follows: Y=Bottom+(Top−Bottom)/(1+10^((log IC50−X)*h))
(§7) where IC50 is the inhibitor concentration (same unit as X) at 50% inhibition and h is the Hill slope. Y is percent of inhibition, X is log of compound concentration. Bottom and Top are the plateaus in same units as Y.

[2] = tested on: nuclear symmetric Arginine dimethylation in A549 cells; test: PD assay (assay 2): inhibition of nuclear symmetric Arginine dimethylation (SYM10 immunohistochemistry), 48 h; assay type: cell-based; conditions: for IC50: Homo sapiens
Method: Experimental Procedure PD Assay (Assay 2)
A549 cells (ATCC, Cat #CCL-185) were cultured in Dulbecco's Modified Eagle's Medium (DMEM) (Sigma, Cat #D5796), supplemented with 10% Fetal Calf Serum (FCS) (HyClone™, Cat #SV30160.03), 100 mM Sodium Pyruvate (Sigma, Cat #S8636), 200 mM L-Glutamine (Sigma, Cat #G7513) and 50 mg/mL gentamycin (Gibco, Cat #15750-037).
Reagents used for buffers were purchased: Dulbecco's phosphate buffered saline (DPBS) without Ca/Mg (Sigma, Cat #D8537), phosphate buffered saline (PBS) 10× (Roche, Cat #11 666 789 001), Formalin solution 10% (Sigma, HT50-1-128-4L), Methanol 100% (Sigma, Cat #32213-2.5L), Triton X-100 (Acros, Cat #215680010), Bovine Serum Albumin (BSA) (Sigma, Cat #A2153), Alexa fluor 488 goat anti-rabbit antibody (Life Technologies, Cat #A11034), HCS CellMask Deep Red Stain (Life Technologies, Cat #H32721), Hoechst Stain (Life Technologies, Cat #33258), Anti-dimethyl-Arginine, sym (SYM10) antibody (Millipore, 07-412).
Immunohistochemistry Procedure
Cells were plated at 400 cells/40 μL/well in 384 well black μplates clear bottom (Perkin Elmer) and overnight incubated at 37° C., 5% CO2. […] 80 nL of the respective dilution of the compounds was added using the Labcyte POD 810 (Labcyte) reaching a final DMSO concentration of 0.2% in cell culture. After an incubation period of 48 h at 37° C. and 5% CO2, cells were fixed in 10% formalin solution for 15 min at room temperature and 20 min in ice-cold methanol, after which they were washed 3× in DPBS. Subsequently, the cells were blocked for 1 h in blocking buffer (PBS+1% BSA and 0.5% Triton X-100) and incubated overnight at 4° C. with the SYM10 antibody diluted 1/2000 in blocking buffer. The cells were washed 3× with washing buffer (PBS+0.1% Triton X-100) and incubated with the Alexa fluor 488 goat anti-rabbit antibody diluted 1/200 in blocking buffer for 1 h at room temperature. Subsequently, they were washed 3× with washing buffer and incubated for 30 min at room temperature with PBS containing a 1/5000 dilution of Hoechst Stain and a 1/5000 dilution of the HCS CellMask Deep Red Stain. After a final wash with PBS, the plates were imaged using the 10×W lens of the Opera® system (Perkin Elmer Life Sciences) using following settings (values in nm):
In the above equations, the following variable names are used: […]
In the above equations, the following controls were used for normalization: […]
Low control: minimum level of symmetrically dimethylated Arginines (cells treated with reference compound at 10 μM).
High control: maximum level of symmetrically dimethylated Arginines (DMSO treated cells).
IC50 and pIC50 (−log IC50) values were calculated using the appropriate software.
The pIC50 values in the Table below are averaged values (Co. No. means compound number; n.d. means not determined).

PRMT5-MEP50 enzyme [3] = molecular target: T1, PRMT5-MEP50 enzyme; test: In vitro assay 1a: high throughput mass spectrometer assay of SAH formation, 10 nM enzyme, 60 min; assay type: biochemical; conditions: averaged values, PRMT5-MEP50, 10 nM enzyme, read-out: pIC50 Assay 1a (converted)
From the text: as §1, §2, §3, §4, §5, §6, §7

[4] = A549, averaged values, PD assay, A549 cells, symmetric Arginine dimethylation, read-out: pIC50 Assay 2 (converted)

Compound | IC50 (PRMT5-MEP50 enzyme [1]) | IC50 [2, 4] | IC50 (PRMT5-MEP50 enzyme [3]) | IC50 ([2]; A549, read-out: pIC50 Assay 2 (converted)) | pIC50 Assay 2 ([2]; averaged values, PD assay, A549 cells, symmetric Arginine dimethylation)
Nc1ncnc2c1ccn2[C@@H]1O[C@H](COc2ccc3c(Cl)c(Cl)cnc3c2)[C@@H](O)[C@H]1O [Compound 35] | 0.794 µM | 0.398 µM | 0.398 µM | – | –
CNC(=O)c1ccc2ccc(OC[C@H]3O[C@@H](n4ccc5c(N)ncnc54)[C@H](O)[C@@H]3O)cc2n1 [Compound 246] | – | > 20 µM | 3.16 µM | – | –
Nc1ncnc2c1ccn2[C@@H]1O[C@H](COc2ccc3ccnnc3c2)[C@@H](O)[C@H]1O [Compound 69] | 3.16 µM | > 20 µM | 0.631 µM | – | –
Nc1cnc2ccc(CC[C@H]3C[C@@H](n4ccc5c(Cl)ncnc54)[C@H](O)[C@@H]3O)cc2n1 [Compound 143] | 0.0501 µM | 2.51 µM | 0.01 µM | – | –
CNc1ccc2ccc(OC[C@H]3O[C@@H](n4ccc5c(Cl)ncnc54)[C@H](O)[C@@H]3O)cc2n1 [Compound 136] | 0.0501 µM | 0.501 µM | 0.00794 µM | – | –
Nc1ncnc2c1ccn2[C@@H]1C[C@H](CCc2ccc3cc(Br)c(NCC4CC4)nc3c2)[C@@H](O)[C@H]1O [Compound 148] | 0.794 µM | 0.2 µM | 0.398 µM | – | –
Nc1ncnc2c1ccn2[C@@H]1O[C@H](COc2ccc3ccc(NCC4CC4)nc3c2)[C@@H](O)[C@H]1O [Compound 142] | 0.00794 µM | 0.0158 µM | 0.00126 µM | – | –
Nc1ncnc2c1ccn2[C@@H]1O[C@H](C#Cc2ccc3cccnc3c2)[C@@H](O)[C@H]1O [Compound 63] | 0.126 µM | 0.2 µM | 0.0251 µM | – | –
Nc1ncnc2c1ccn2[C@@H]1O[C@H](COc2ccc3nccnc3c2)[C@@H](O)[C@H]1O [Compound 15] | – | > 3.98 µM | 1 µM | – | –
Nc1ccc2ccc(CC[C@H]3O[C@@H](n4ccc5cncnc54)[C@H](O)[C@@H]3O)cc2n1 [Compound 167] | 0.00501 µM | 0.00316 µM | 0.000794 µM | – | –
CN(C[C@H]1O[C@@H](n2ccc3c(Cl)ncnc32)[C@H](O)[C@@H]1O)c1ccc2cc(Br)cnc2c1 [Compound 86] | 1 µM | 5.01 µM | 2.51 µM | – | –
Nc1ncnc2c1ccn2[C@@H]1O[C@H](COc2cccc3ncccc23)[C@@H](O)[C@H]1O [Compound 5] | 5.01 µM | > 10 µM | 2 µM | – | –
Nc1ncnc2c1ccn2[C@@H]1O[C@H](CNc2ccc3cccnc3c2)[C@@H](O)[C@H]1O [Compound 49] | 0.01 µM | 0.01 µM | 0.00398 µM | – | –
Nc1ccc2ccc(CC[C@H]3C[C@@H](n4ccc5cncnc54)[C@H](O)[C@@H]3O)cc2n1 [Compound 77] | – | < 0.00117 µM | 0.000501 µM | – | –
CNc1ncnc2c1ccn2[C@@H]1C[C@H](CCc2ccc3ccc(N)nc3c2)[C@@H](O)[C@H]1O [Compound 78] | – | – | 0.00126 µM | 0.000316 µM | –
CC(Oc1ccc2cccnc2c1)[C@H]1O[C@@H](n2ccc3c(N)ncnc32)[C@H](O)[C@@H]1O (single isomer, unassigned) [Compound 67] | – | – | 0.1 µM | – | 6.5
COc1ncnc2c1ccn2[C@@H]1C[C@H](CCc2ccc3ccc(N)nc3c2)[C@@H](O)[C@H]1O [Compound 79] | – | < 0.00117 µM | 0.000398 µM | – | –
Nc1ncnc2c1ccn2[C@@H]1O[C@H](COc2ccc3ccc(Cl)nc3c2)[C@@H](O)[C@H]1O [Compound 20] | – | 6.31 µM | 2 µM | – | –
Nc1ncnc2c1ccn2[C@@H]1C[C@H](/C=C/c2ccc3cc(Cl)cnc3c2)[C@@H](O)[C@H]1O [Compound 57] | – | ~0.151 µM | 0.0316 µM | – | –
Nc1ncnc2c1ccn2[C@@H]1O[C@H](CSc2ccc3cccnc3c2)[C@@H](O)[C@H]1O [Compound 48] | – | 0.398 µM | 0.1 µM | – | –
Cc1c(OC[C@H]2O[C@@H](n3ccc4c(N)ncnc43)[C@H](O)[C@@H]2O)ccc2cccnc12 [Compound 39] | – | 2 µM | 2.51 µM | – | –
Nc1ncnc2c1ccn2[C@@H]1O[C@H](COc2ccc3ccccc3c2)[C@@H](O)[C@H]1O [Compound 9] | – | > 20 µM | 3.16 µM | – | –
Nc1ncnc2c1ccn2[C@@H]1O[C@H](COc2ccc3cc(Br)cnc3c2Cl)[C@@H](O)[C@H]1O [Compound 94] | – | ~1 µM | 1 µM | – | –
Nc1ncnc2c1ccn2[C@@H]1O[C@H](COc2cccc3ccncc23)[C@@H](O)[C@H]1O [Compound 7] | – | ~17.4 µM | 1.26 µM | – | –
Nc1ncnc2c1c(Br)cn2[C@@H]1O[C@H](COc2ccc3cccnc3c2)[C@@H](O)[C@H]1O [Compound 45] | – | 0.631 µM | 0.251 µM | – | –
Nc1ncnc2c1ccn2[C@@H]1O[C@H](COc2cnc3cccnc3c2)[C@@H](O)[C@H]1O [Compound 14] | – | > 20 µM | 1.26 µM | – | –
C=Cc1cnc2cc(OC[C@H]3O[C@@H](n4ccc5c(N)ncnc54)[C@H](O)[C@@H]3O)ccc2c1 [Compound 253] | – | – | 0.02 µM | – | –
Nc1nc2cc(CC[C@H]3C[C@@H](n4ccc5c(N)ncnc54)[C@H](O)[C@@H]3O)ccc2cc1Cl [Compound 81] | – | 0.0002 µM | 0.000251 µM | – | –
Nc1ncnc2c1ccn2[C@@H]1O[C@H](COc2cc3ncc(Br)cc3cc2Cl)[C@@H](O)[C@H]1O [Compound 92] | – | 0.794 µM | 0.0631 µM | – | –
COc1cc2c(Cl)ccnc2cc1OC[C@H]1O[C@@H](n2ccc3c(N)ncnc32)[C@H](O)[C@@H]1O [Compound 36] | – | > 20 µM | 7.94 µM | – | –
